Source: publication PMC4627091 (2015)

What was measured:
[1] = system: wt Spinach without anchor sequence (in solution) (RNA, aptamer) GACGCGACUGAAUGAAAUGGUGAAGGACGGGUCCAGCUGCUUCGGCAGCUUGUUGAGUAGAGUGUGAGCUCCGUAACUAGUCGCGUC; assay: solution binding assay (off chip); settings: buffer and temperature not stated
[2] = system: Spinach with GAAA tetraloop (RNA, aptamer) GGGAACACAAUAAUAAAACUUACAAACAAGAAAAAAAAGACGCGACUGAAUGAAAUGGUGAAGGACGGGUCCAGCUGCGAAAGCAGCUUGUUGAGUAGAGUGUGAGCUCCGUAACUAGUCGCGUC; assay: on-chip fluorescence titration and melting; settings: 125 mM KCl, 5 mM MgCl2; 40 mM HEPES, 5% DMSO; comparable to UUCG loop; immobilised RNA
[3] = system: wt Spinach (87-nt, on chip, with 5' capture tag) (RNA, aptamer) GGGAACACAAUAAUAAAACUUACAAACAAGAAAAAAAAGACGCGACUGAAUGAAAUGGUGAAGGACGGGUCCAGCUGCUUCGGCAGCUUGUUGAGUAGAGUGUGAGCUCCGUAACUAGUCGCGUC; assay: on-chip fluorescence titration (mLSI pull-down); settings: 125 mM KCl, 5 mM MgCl2; 40 mM HEPES, 5% DMSO; temperature of this value not stated (19-28°C series); immobilised RNA
[4] = system: wt Spinach with anchor sequence (in solution) (RNA, aptamer) GGGAACACAAUAAUAAAACUUACAAACAAGAAAAAAAAGACGCGACUGAAUGAAAUGGUGAAGGACGGGUCCAGCUGCUUCGGCAGCUUGUUGAGUAGAGUGUGAGCUCCGUAACUAGUCGCGUC; assay: solution binding assay (off chip); settings: buffer and temperature not stated
[5] = system: Spinach U50C (RNA, aptamer) GGGAACACAAUAAUAAAACUUACAAACAAGAAAAAAAAGACGCGACUGAAUGAAAUGGUGAAGGACGGGUCCAGCUGCUUCGGCAGCCUGUUGAGUAGAGUGUGAGCUCCGUAACUAGUCGCGUC; assay: on-chip fluorescence titration (mLSI pull-down); settings: 125 mM KCl, 5 mM MgCl2; 40 mM HEPES, 5% DMSO; temperature of this value not stated; immobilised RNA
[6] = system: Spinach with GUGA tetraloop (RNA, aptamer) GGGAACACAAUAAUAAAACUUACAAACAAGAAAAAAAAGACGCGACUGAAUGAAAUGGUGAAGGACGGGUCCAGCUGCGUGAGCAGCUUGUUGAGUAGAGUGUGAGCUCCGUAACUAGUCGCGUC; assay: on-chip fluorescence; settings: 125 mM KCl, 5 mM MgCl2; loss of fluorescence attributed to misfolding; up to 43.5 μM DFHBI

- Kd [1]: 530 nM
- binding [2]: yes
- Kd [3]: 1180 nM
- Kd [4]: 680 nM
- Kd [5]: 450 nM
- binding [6]: no
Structure (SMILES): CC1=N/C(=C\c2cc(F)c(O)c(F)c2)C(=O)N1C
